The record followed here is patent publication US9307761B2, “Microbial composition” (Rohm and Haas Company, priority 2011, dated 2016).

What all share (type): cell-based
Experiment [1] concerns Escherichia coli (E. coli—ATCC #10536). Briefly: Automated assessment of efficacy in model surfactant medium (2.85% sodium cocoyl glycinate and 1.85% sodium lauroamphoacetate), 15 seconds exposure, delta OD450/OD590. Particulars: for MBC: Escherichia coli, ATCC10536, 15 s, in 2.85% sodium cocoyl glycinate + 1.85% sodium lauroamphoacetate solution at pH 10, E. coli, read-out: MBC (minimum biocidal concentration); for No. of replicates showing growth (out of 4) / Δ OD 450 nm = OD450 (time = 16 hours) − OD450 (time zero), Mean / Δ OD 590 nm OD590 (time = 16 hours) − OD590 (time zero), Mean / MBC of phenol: model surfactant solution; for No. of replicates showing growth (out of 4) / Δ OD 450 nm = OD450 (time = 16 hours) − OD450 (time zero), Mean / Δ OD 590 nm OD590 (time = 16 hours) − OD590 (time zero), Mean: 15 s exposure; for MBC of phenol: phenol alone, complete bacterial kill against E. coli. As to the method:
Micobiocidal Activity of Actives as Per the Invention in a Model Surfactant Medium Test Methodology for Automated Assessment of Efficacy in Surfactant Base
Solutions were prepared such that the concentrations of the surfactant components and test actives were 1.1×the final desired concentration in order to allow for dilution with the bacterial inoculum in the test. The solutions were manually adjusted to […] by dropwise addition of sodium hydroxide solution, as measured with a pH meter at ambient temperature.
Tests were conducted using standard microtiter plate assays using an automated liquid handling system, 270 μl of the surfactant test solution was pipetted into each well of the microtitre plate and 30 μl of the bacterial suspension was then added. After exactly 15 seconds of bacterial exposure, a 30 μl volume of bacterial cells was withdrawn and transferred to 270 μl of D/E quench solution. After 5 minutes in the D/E quench, the optical density (OD) was measured for each plate in turn at two specific wavelengths (450 nm and 590 nm). These provide a dual check of antimicrobial activity, as the OD450 reading is specific for the yellow colour of D/E quench when bacterial growth is observed, whereas OD590 is specific for the initial purple colour of the D/E quench which is retained if no bacterial growth is observed. After the time zero OD measurements, plates were then incubated at 37° C. overnight (16 hours) before repeating the OD measurements. Delta OD values were calculated by subtracting […]. Bacterial growth is observed as art increase in OD450 and a decrease in ΔOD590. To identify antibacterially efficacious systems (those preventing appreciable bacterial growth after incubation), the following threshold changes in OD readings have been adopted: if (1). OD450 increases by less than 0.2 absorbance unit on incubation and (2). OD590 decreases by less than 0.35 unit on incubation. Conversely, where OD450 increases by more than 0.2 AU and OD590 decreases by more than 0.35 unit after incubation, corresponding to a colour shift from purple to yellow, the test system allows bacterial growth and is not deemed efficacious, four replicate measurements in the same plate have been made for each test system. The number of replicate wells showing either bacterial growth or no growth is also readily assessed by eye by following the colour change.
Dose responses for individual components and binary mixtures of actives at a fixed concentration ratio were generated by sequential dilution of liquors with further surfactant solution to obtain a series of endpoints.
In some selected cases, the combinations were also tested at the weight ratio 1:1.

Experiment [2] has as its system Escherichia coli (10536 strain). Briefly: 15 seconds contact kill assay of actives in water, mean bacterial survival NMBS. Particulars: for NMBS: alone, 15 seconds contact.
Experiment [3] deals with Escherichia coli (E. coli—ATCC #10536). The experiment is described as follows: Synergy tests: high resolution MBC microtiter plate assay, 15 seconds contact, phosphate buffer containing […] dipropylene glycol. Particulars: E. coli 10536; at Qa and Qb; <1 synergy, 1 additivity, >1 antagonism. The text has this: The concentrations and ratios may also vary under different test conditions or with different test methods.
One measure of synergy is the industrially accepted method described by Kull, F. C.; Eisman, P. C.; Sylwestrowicz, H. D. and Mayer, R. L., in Applied Microbiology 9:538-541 (1961), using the ratio determined by the formula: Qa/QA+Qb/QB=Synergy Index (“SI”) wherein: • QA=concentration of compound A (first component) in percent, acting alone, which produced an end point (MBC of Compound A). • Qa=concentration of compound A in percent, in the mixture, which produced an end point. • QB=concentration of compound B (second component) in percent, acting alone, which produced an end point (MBC of Compound B). • Qb=concentration of compound B in percent, in the mixture, which produced an end point.
When the sum of Qa/QA and Qb/QB is greater than one, antagonism is indicated. […] The lower the SI, the greater is the synergy shown by that particular mixture. The minimum biocidal concentration (MBC) of a microbicide is the lowest concentration tested under a specific set of conditions that provides complete kill of the tested microorganisms.
Synergy tests were conducted using standard microtiter plate assays with phosphate buffer containing 3.5% dipropylene glycol (DPG). In this method, a wide range of combinations of chemicals was tested by conducting high resolution MBC assays of Component (A) in the presence of various concentrations of Component (B). High resolution MBCs were determined by adding varying amounts of microbicide to one column of a microtiter plate and doing subsequent […] dilutions using an automated liquid handling system to obtain a series of closely spaced endpoints. The MBC plate was inoculated one column at a time with the test microorganism. An aliquot of the inoculated well was transferred at 15 seconds to a plate containing a neutralizing agent (D/E Neutralizing Broth), mixed and held for 5 minutes before being transferred to a growth plate containing trypticase soy broth (TSB). The TSB plate was incubated at 37° C. and read for the presence/absence of growth at 24 hours. The lowest level tested that provided complete kill (as evidenced by no growth in the microtitre plate) of the test organisms in 15 seconds is the minimum biocidal concentration (MBC).
The synergy of the combinations of the present invention was determined against a bacterium, Escherichia coli (E. coli—ATCC #10536), at a concentration of approximately 1×10^8 bacteria, per mL. This microorganism is representative of natural contaminants in many consumer and industrial applications.

The mark [4] stands for this setting: single active alone at 0.2% w/v.
Where [5] appears, read: single active alone at 0.3% w/v.
Setting [6] is: single active alone at 0.1% w/v.
Where [7] appears, read: single active alone at 0.175% w/v.

Regarding `CC1=CC[C@@H](CO)[C@H](C)C1` (relative stereo) [Floralol, Trans-4,6-dimethyl-3-Cyclohexene-1-methanol], in experiment [1], the MBC is 4000 µg/mL. Further, the “No. of replicates showing growth (out of 4)” value was found to be 4 in experiment [1] (setting [4]), 4 in experiment [1] (setting [5]) and 1 in experiment [1] (single active alone at […] w/v). The “Δ OD 450 nm = OD450 (time = 16 hours) − OD450 (time zero), Mean” value (from here on “Δ OD 450 nm = OD450”) is −1.43 in experiment [1] (setting [4]), −1.20 in experiment [1] (setting [5]) and −0.29 in experiment [1] (single active alone at […] w/v). The “Δ OD 590 nm OD590 (time = 16 hours) − OD590 (time zero), Mean” value (shortened to “Δ OD 590 nm OD590”) in experiment [1] (setting [4]) worked out at 0.35; in experiment [1] (setting [5]) it was 0.55; in experiment [1] (single active alone at […] w/v) it was 0.23. Further, the NMBS in experiment [2] (0.3% w/v, E. coli) stood at 0 log CFU/ml; in experiment [2] (0.4% w/v, E. coli), 0 log CFU/ml; in experiment [2] ([…] w/v, E. coli), 7.92 log CFU/ml. Further, the “MBC (minimum biocidal concentration)” value in experiment [2] (E. coli, in water, component alone) is recorded as 0.3 % w/v. For the same molecule, the “MBC of antimicrobial alcohol” value in experiment [2] (antimicrobial alcohol alone, complete bacterial kill against E. coli) is recorded as 0.3 % (w/v).

As to `CC1=CC(C)C(CO)C(C)C1` (centres unmarked) [2,4,6-trimethyl-3-cyclohexene-1-methanol], in experiment [1], the MBC worked out at 4000 µg/mL. In addition, in experiment [1] (setting [4]), the “No. of replicates showing growth (out of 4)” value worked out at 4; the “Δ OD 450 nm = OD450” value is −1.50; the “Δ OD 590 nm OD590” value is on record as 0.29. In addition, the “No. of replicates showing growth (out of 4)” value in experiment [1] (single active alone at […] w/v) came out at 4. For the same molecule, the “SI (Synergy Index = Qa/QA + Qb/QB)” value in experiment [3] is recorded as 1.00.

For `CC1=CCC(C(C)CO)CC1` (centres unmarked) [2-(4-methylcyclohex-3-enyl)propan-1-ol], the “SI (Synergy Index = Qa/QA + Qb/QB)” value in experiment [3] is 1.00.

On to `CCCc1ccccc1O` [2-propyl phenol], for which the “MBC of phenolic compound” value in experiment [2] (phenolic compound alone, complete bacterial kill against E. coli) is given as 0.125 % (w/v).

In the case of `CCC(C)c1ccccc1O` (centres unmarked) [2-sec-butyl phenol], the MBC of phenol in experiment [1] is given as 0.175 % (w/v).

On to `CCC(C)c1ccccc1O` (centres unmarked) [2-sec-butylphenol], for which, in experiment [1] (setting [6]), the “No. of replicates showing growth (out of 4)” value came out at 4; the “Δ OD 450 nm = OD450” value is on record as −1.44; the “Δ OD 590 nm OD590” value is 0.36.

With `CC(C)(C)c1ccccc1O` [2-ter-butylphenol], in experiment [1] (setting [7]), the “No. of replicates showing growth (out of 4)” value stood at 4; the “Δ OD 450 nm = OD450” value was −1.08; the “Δ OD 590 nm OD590” value was 0.57.

With `Cc1ccc(C(C)(C)C)c(O)c1` [2-tert-butyl-5-methylphenol], in experiment [1], the MBC of phenol is 0.2 % (w/v).

For the molecule `CC(C)(C)c1ccccc1O` [2-tert-butylphenol], in experiment [3], the “SI (Synergy Index = Qa/QA + Qb/QB)” value is 1.00.
